The text below walks through data of patent publication US10336709B2, “Lp-PLA2 inhibitors” (ABIDE THERAPEUTICS, INC., priority 2015, dated 2019).

For one test, the target named is T1, ABHD6 (Mus musculus, UniProt Q8R2Y0).
T1 construct: Mouse brain membrane proteomes (50 μL, 1.0 mg/mL total protein concentration) were preincubated; from tissue; host or cells: mouse brain membrane fraction
T1 sequence (Q8R2Y0 1-336): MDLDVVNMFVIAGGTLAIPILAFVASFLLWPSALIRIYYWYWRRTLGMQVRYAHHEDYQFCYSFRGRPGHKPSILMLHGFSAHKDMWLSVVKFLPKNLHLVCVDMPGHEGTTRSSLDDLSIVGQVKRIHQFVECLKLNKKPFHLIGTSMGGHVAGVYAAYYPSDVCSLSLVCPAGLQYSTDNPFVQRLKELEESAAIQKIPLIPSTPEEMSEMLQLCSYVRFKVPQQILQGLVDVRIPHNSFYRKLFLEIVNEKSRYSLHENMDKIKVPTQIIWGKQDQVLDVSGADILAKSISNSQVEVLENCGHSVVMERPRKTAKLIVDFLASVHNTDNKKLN
Description: In vitro competitive activity-based protein profiling (HT-01 probe, gel band ABHD6). As to conditions: mouse brain membrane proteomes; for IC50: 30 min preincubation at 37° C. It is filed as biochemical. Also noted: ABHD6 % at 100 μM: scale not given here. The procedure:
(§1) Compounds are tested to assess their Lp-PLA2 and serine hydrolase activity using the following in vitro assays.
(§2) In Vitro Competitive Activity-Based Protein Profiling
(§3) Mouse brain membrane proteomes (50 μL, 1.0 mg/mL total protein concentration) were preincubated with varying concentrations of inhibitors at 37° C. After 30 min, HT-01 probe (1.0 μL, 50 μM in DMSO) was added and the mixture was incubated for another 30 min at room temperature. Reactions were quenched with SDS loading buffer (15 μL-4×) and run on SDS-PAGE gels. Following gel imaging, serine hydrolase activity was determined by measuring fluorescent intensity of gel bands corresponding to PLA2G7 and ABHD6 using ImageJ 1.49 k software.

Another test deals with T2, Lp-PLA2 (Mus musculus, UniProt Q60963).
T2 construct: Mouse brain membrane proteomes (50 μL, 1.0 mg/mL total protein concentration) were preincubated; from tissue; host or cells: mouse brain membrane fraction
T2 sequence (Q60963 22-440): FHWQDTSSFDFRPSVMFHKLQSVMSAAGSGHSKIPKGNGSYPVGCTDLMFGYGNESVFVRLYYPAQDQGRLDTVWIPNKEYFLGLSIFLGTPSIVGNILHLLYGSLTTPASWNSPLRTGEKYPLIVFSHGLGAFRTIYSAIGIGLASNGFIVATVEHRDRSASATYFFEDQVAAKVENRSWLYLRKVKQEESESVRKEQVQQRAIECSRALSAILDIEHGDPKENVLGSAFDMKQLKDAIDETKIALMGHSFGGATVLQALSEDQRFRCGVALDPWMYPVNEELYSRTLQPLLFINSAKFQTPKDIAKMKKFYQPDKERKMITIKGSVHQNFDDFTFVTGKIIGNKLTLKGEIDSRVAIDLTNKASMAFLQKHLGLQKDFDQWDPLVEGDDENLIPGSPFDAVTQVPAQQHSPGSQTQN
The test is described as follows: In vitro competitive activity-based protein profiling (HT-01 probe, gel band PLA2G7). The arrangement: Lp-PLA2 % at 100 μM: scale not given here. It is filed as biochemical. Conditions: mouse brain membrane proteomes; for IC50: 30 min preincubation at 37° C. As to the method:
as §1, §2, §3

Some results are limits rather than exact numbers.

For `CC(C)[C@@H]1NC(=O)N(OC(=O)N2CCN(c3cccc(C(=O)N4CCCC4)c3Cl)CC2)C1=O` [Example 1, (S)-4-isopropyl-2,5-dioxoimidazolidin-1-yl 4-(2-chloro-3-(pyrrolidine-1-carbonyl)phenyl)piperazine-1-carboxylate], the IC50 is < 100 nM at ABHD6 and 100 to 1000 nM on Lp-PLA2.
The matching figures for `CC(C)[C@@H]1NC(=O)N(OC(=O)N2CCN(c3cccc(C(=O)N4CCCCC4)c3Cl)CC2)C1=O` [Example 2, (S)-4-isopropyl-2,5-dioxoimidazolidin-1-yl 4-(2-chloro-3-(piperidine-1-carbonyl)phenyl)piperazine-1-carboxylate]: 100 to 1000 nM and 100 to 1000 nM.
Consider `CC(C)[C@@H]1NC(=O)N(OC(=O)N2CCN(c3cccc(C(=O)N4CCOCC4)c3Cl)CC2)C1=O` [Example 3, (S)-4-isopropyl-2,5-dioxoimidazolidin-1-yl 4-(2-chloro-3-(morpholine-4-carbonyl)phenyl)piperazine-1-carboxylate], for which the IC50 at ABHD6 and on Lp-PLA2 was 100 to 1000 nM each time.
As for `CC(C)[C@H]1NC(=O)N(OC(=O)N2CCN(c3cccc(C(=O)N4CCCC4)c3Cl)CC2)C1=O` [Example 4, (R)-4-isopropyl-2,5-dioxoimidazolidin-1-yl 4-(2-chloro-3-(pyrrolidine-1-carbonyl)phenyl)piperazine-1-carboxylate], the IC50 on ABHD6 fell in the range of 100 to 1000 nM. Further, 10 µM produced 75% inhibition at Lp-PLA2.
`CC(C)[C@H]1NC(=O)N(OC(=O)N2CCN(c3cccc(C(=O)N4CCCCC4)c3Cl)CC2)C1=O` [Example 5, (R)-4-isopropyl-2,5-dioxoimidazolidin-1-yl 4-(2-chloro-3-(piperidine-1-carbonyl)phenyl)piperazine-1-carboxylate] registered an IC50 at ABHD6 of 100 to 1000 nM. Moreover, at 10 µM the inhibition on Lp-PLA2 was 75%.
The matching figures for `CC(C)[C@H]1NC(=O)N(OC(=O)N2CCN(c3cccc(C(=O)N4CCOCC4)c3Cl)CC2)C1=O` [Example 6, (R)-4-isopropyl-2,5-dioxoimidazolidin-1-yl 4-(2-chloro-3-(morpholine-4-carbonyl)phenyl)piperazine-1-carboxylate]: 100 to 1000 nM and 75%.
`O=C(ON1C(=O)N[C@@H](Cc2ccccc2)C1=O)N1CCN(c2cccc(C(=O)N3CCCC3)c2Cl)CC1` [Example 7, (S)-4-benzyl-2,5-dioxoimidazolidin-1-yl 4-(2-chloro-3-(pyrrolidine-1-carbonyl)phenyl)piperazine-1-carboxylate]: the IC50 at ABHD6 and on Lp-PLA2 was < 100 nM each time.
Regarding `O=C(ON1C(=O)N[C@@H](Cc2ccccc2)C1=O)N1CCN(c2cccc(C(=O)N3CCCCC3)c2Cl)CC1` [Example 8, (S)-4-benzyl-2,5-dioxoimidazolidin-1-yl 4-(2-chloro-3-(piperidine-1-carbonyl)phenyl)piperazine-1-carboxylate], the IC50 on ABHD6 is 100 to 1000 nM; at Lp-PLA2 it was < 100 nM.
The matching figures for `O=C(ON1C(=O)N[C@@H](Cc2ccccc2)C1=O)N1CCN(c2cccc(C(=O)N3CCOCC3)c2Cl)CC1` [Example 9, (S)-4-benzyl-2,5-dioxoimidazolidin-1-yl 4-(2-chloro-3-(morpholine-4-carbonyl)phenyl)piperazine-1-carboxylate]: 100 to 1000 nM and < 100 nM.
The matching figures for `O=C(ON1C(=O)N[C@H](Cc2ccccc2)C1=O)N1CCN(c2cccc(C(=O)N3CCCC3)c2Cl)CC1` [Example 10, (R)-4-benzyl-2,5-dioxoimidazolidin-1-yl 4-(2-chloro-3-(pyrrolidine-1-carbonyl)phenyl)piperazine-1-carboxylate]: < 100 nM and < 100 nM.
As to `O=C(ON1C(=O)N[C@H](Cc2ccccc2)C1=O)N1CCN(c2cccc(C(=O)N3CCCCC3)c2Cl)CC1` [Example 11, (R)-4-benzyl-2,5-dioxoimidazolidin-1-yl 4-(2-chloro-3-(piperidine-1-carbonyl)phenyl)piperazine-1-carboxylate], the IC50 on ABHD6 and on Lp-PLA2 was < 100 nM throughout.
With `O=C(ON1C(=O)N[C@H](Cc2ccccc2)C1=O)N1CCN(c2cccc(C(=O)N3CCOCC3)c2Cl)CC1` [Example 12, (R)-4-benzyl-2,5-dioxoimidazolidin-1-yl 4-(2-chloro-3-(morpholine-4-carbonyl)phenyl)piperazine-1-carboxylate], the IC50 at ABHD6 and at Lp-PLA2 was < 100 nM in each case.
For the molecule `O=C(ON1C(=O)N[C@@H](Cc2ccccc2)C1=O)N1CCN(c2cccc(C(=O)N3CCCCC3)c2)CC1` [Example 13, (S)-4-benzyl-2,5-dioxoimidazolidin-1-yl 4-(3-(piperidine-1-carbonyl)phenyl)piperazine-1-carboxylate], the 50% inhibitory concentration (IC50) at ABHD6 and at Lp-PLA2 was < 100 nM in each case.
Consider `CN1CCN(C(=O)c2cccc(N3CCN(C(=O)ON4C(=O)N[C@@H](Cc5ccccc5)C4=O)CC3)c2Cl)CC1` [Example 14, (S)-4-benzyl-2,5-dioxoimidazolidin-1-yl 4-(2-chloro-3-(4-methylpiperazine-1-carbonyl)phenyl)piperazine-1-carboxylate], for which the IC50 on ABHD6 and at Lp-PLA2 was < 100 nM in each case.
Take `O=C(ON1C(=O)N[C@@H](Cc2ccccc2)C1=O)N1CCN(c2ccc(C(=O)N3CCCCC3)cc2Cl)CC1` [Example 15, (S)-4-benzyl-2,5-dioxoimidazolidin-1-yl 4-(2-chloro-4-(piperidine-1-carbonyl)phenyl)piperazine-1-carboxylate]: the half-maximal inhibitory concentration (IC50) on ABHD6 and on Lp-PLA2 was < 100 nM throughout.
For the molecule `CN(C)C(=O)c1cccc(N2CCN(C(=O)ON3C(=O)N[C@@H](Cc4ccccc4)C3=O)CC2)c1Cl` [Example 16, (S)-4-benzyl-2,5-dioxoimidazolidin-1-yl 4-(2-chloro-3-(dimethylcarbamoyl)phenyl)piperazine-1-carboxylate], the IC50 on ABHD6 and at Lp-PLA2 was < 100 nM in each case.
On to `O=C(ON1C(=O)N[C@@H](Cc2ccccc2)C1=O)N1CCN(c2cc(C(=O)N3CCCCC3)ccc2Cl)CC1` [Example 17, (S)-4-benzyl-2,5-dioxoimidazolidin-1-yl 4-(2-chloro-5-(piperidine-1-carbonyl)phenyl)piperazine-1-carboxylate], for which the IC50 on ABHD6 and on Lp-PLA2 was < 100 nM each time.
As to `NC(=O)c1cccc(N2CCN(C(=O)ON3C(=O)N[C@@H](Cc4ccccc4)C3=O)CC2)c1Cl` [Example 18, (S)-4-benzyl-2,5-dioxoimidazolidin-1-yl 4-(3-carbamoyl-2-chlorophenyl)piperazine-1-carboxylate], on ABHD6 (at 100 μM), the “ABHD6 % at 100 μM” value is recorded as 25% at 100 μM. The “Lp-PLA2 % at 100 μM” value at Lp-PLA2 (at 100 μM) was found to be 25% at 100 μM.
Turning to `O=C(O)c1cccc(N2CCN(C(=O)ON3C(=O)N[C@@H](Cc4ccccc4)C3=O)CC2)c1Cl` [Example 19, (S)-3-(4-((4-benzyl-2,5-dioxoimidazolidin-1-yloxy)carbonyl)piperazin-1-yl)-2-chlorobenzoic acid], the IC50 at ABHD6 and at Lp-PLA2 was > 1000 nM in each case.
As for `CN1C(=O)N(OC(=O)N2CCN(c3cccc(C(=O)N4CCCCC4)c3Cl)CC2)C(=O)[C@@H]1Cc1ccccc1` [Example 20, (S)-4-benzyl-3-methyl-2,5-dioxoimidazolidin-1-yl 4-(2-chloro-3-(piperidine-1-carbonyl)phenyl)piperazine-1-carboxylate], the IC50 on ABHD6 and on Lp-PLA2 was < 100 nM each time.
`O=C(ON1C(=O)N[C@@H](Cc2ccccc2)C1=O)N1CCCN(c2cccc(C(=O)N3CCCCC3)c2Cl)CC1` [Example 21, (S)-4-benzyl-2,5-dioxoimidazolidin-1-yl 4-(2-chloro-3-(piperidine-1-carbonyl)phenyl)-1,4-diazepane-1-carboxylate]: the inhibition at 10 µM at ABHD6 (at 10 μM) and at Lp-PLA2 was 100% throughout.
Take `O=C(ON1C(=O)N[C@@H](Cc2ccc(C(F)(F)F)cc2)C1=O)N1CCN(c2cccc(C(=O)N3CCCCC3)c2Cl)CC1` [Example 22, (S)-2,5-dioxo-4-(4-(trifluoromethyl)benzyl)imidazolidin-1-yl 4-(2-chloro-3-(piperidine-1-carbonyl)phenyl)piperazine-1-carboxylate]: the IC50 on ABHD6 and at Lp-PLA2 was < 100 nM in each case.

The term IC50 denotes the point on the concentration scale where inhibition reaches its midpoint. For orientation: inhibition means the drop in the measured response relative to a control, in per cent.
